{"source": "patent US20260216239A1", "about": "(Arizona Board of Regents on Behalf of the University of …, priority 2020, published 2026)", "key": {"acute kidney injury": {"tested_on": "acute kidney injury", "conditions": "up to 30 mg/kg of CORM-2; cited from earlier work"}, "[1]": {"tested_on": "C. scutulatus scutulatus (type B) venom", "experiment": "Rabbit model of subcutaneous envenomation, thrombelastography and vital signs", "format": "in vivo, New Zealand White rabbits", "conditions": "n=1", "description": "Male New Zealand White rabbits (2-3 kg) were procured from Charles River Laboratories (San Diego, CA, USA) and housed within our animal facility and allowed food and water ad libitum for at least 1 week prior to experimentation.\nRabbits were briefly restrained and had one ear closely clipped and cleaned with a 70% isopropyl alcohol pad. A 22 G plastic catheter was placed in the central ear artery and another similar catheter placed in the marginal ear vein; both catheters were connected to an end cap with a rubber diaphragm that allowed the withdrawal of blood samples and administration of medications. The animals were sedated intravenously with 1 mg/kg midazolam, with supplemental doses of 0.5-1 mg/kg provided during experimentation to maintain sedation. […] Heart rate (HR) and SpO2 were recorded at baseline and every 15 min thereafter until the end of the experiment.\nAn approximately 5 cm by 5 cm area of skin over either flank of the rabbit, midway between the lumbar spine and mid abdomen, was closely shaved and cleaned with a 70% isopropyl alcohol pad. A 1 cm circle was drawn with a felt tip marker in the center of this area, which served as the injection site for venom and antivenom as appropriate. After obtaining baseline HR value, SpO2 value, and the initial blood sample, venom was injected subcutaneously in the middle of the circle through a ⅝ inch long, 25 G needle. […]"}, "Echis leucogaster venom": {"tested_on": "Echis leucogaster venom", "experiment": "Thrombelastography in human plasma of venom procoagulant activity after isolated exposure of venom to compounds", "format": "biochemical", "conditions": "venom exposed 5 min to 100 μM CORM-2 in 5% human albumin; venom 1 μg/mL in plasma"}, "Atheris nitschei venom": {"tested_on": "Atheris nitschei venom", "conditions": "previously characterized by this laboratory; cited from earlier work"}, "[2]": {"tested_on": "C. scutulatus scutulatus venom", "conditions": "CORM-2 as single agent; cited from earlier work"}, "[3]": {"conditions": "large dose of CORM-2 injected intravenously into rabbits; cited from earlier work"}, "[4]": {"molecular_target": "Mojave rattlesnake (Crotalus scutulatus scutulatus) venom type A (Crotalus scutulatus scutulatus, UniProt P62023)", "experiment": "Thrombelastography in human plasma of PLA2-dependent anticoagulant activity of venom", "format": "biochemical", "procedure": "With regard to materials and methods, Mojave rattlesnake (Crotalus scutulatus scutulatus) venom type A was originally obtained from the National Natural Toxins Research Center (NNTRC) located at Texas A&M University-Kingsville, Kingsville, TX, U.S.A. A previously unthawed aliquot of this venom used in a previous work (see, Nielsen V G (2019) J Thromb Thrombolysis 48, 256-262) was dissolved in calcium-free phosphate buffered saline (PBS, Sigma-Aldrich, Saint Louis, MO, USA) at a concentration of 50 mg/ml, and had been stored at −80° C. RuCl3 as obtained from Sigma-Aldrich, Saint Louis, MO, USA. Calcium chloride (CaCl2, 200 mM) was obtained from Haemonetics Inc., Braintree, MA, USA. Lastly, pooled normal human plasma (George King Bio-Medical, Overland Park, KS, USA) anticoagulated with sodium citrate (9 parts blood to 1 part 0.105M sodium citrate) stored at −80° C. was utilized in all subsequently described experiments.\nSpecific volumes of subsequently described plasma and chemical additives varied by condition but summated to 360 μl. Sample composition consisted of 320 μl of plasma; 16.4 μl of PBS, 20 μl of 200 mM CaCl2, and 3.6 μl of one of five subsequently described solutions, which were placed into a disposable cup in a computer-controlled Thrombelastograph® hemostasis system (Model 5000, Haemonetics Inc., Braintree, MA, USA) at 37° C., and then rapidly mixed by moving the cup up against and then away from the plastic pin five times before leaving the mixture between the cup and pin. The following elastic modulus-based parameters previously described (see, Nielsen V G (2019) J Thromb Thrombolysis 48, 256-262; Nielsen V G, Frank N, Matika R W (2018) Biometals 31, 51-59; Nielsen V G, Frank N, Turchioe B J (2019) Blood Coagul Fibrinolysis 30, 379-384; Nielsen V G (2021) J Thromb Thrombolysis, doi: 10.1007/s11239-020-02373-4) were determined: time to maximum rate of thrombus generation (TMRTG): this is the time interval (minutes) observed prior to maximum speed of clot growth; maximum rate of thrombus generation (MRTG): this is the maximum velocity of clot growth observed (dynes/cm^2/second); and total thrombus generation (TTG, dynes/cm^2), the final viscoelastic resistance observed after clot formation. Data were collected until maximum amplitude was reached as determined by the software of the thrombelastographic system.\nExperiments involving plasma exposure to RuCl3 and venom utilized the following five experimental conditions: 1) control condition (C)—no venom, 1% addition of PBS (v/v) to plasma; 2) RuCl3 in water condition (R/W)—no venom, 1% addition (v/v) of 100 μM RuCl3 dissolved in water to plasma (final concentration 1 μM); 3) RuCl3 in PBS condition (R/P)—no venom, 1% addition (v/v) of 100 μM RuCl3 dissolved in PBS to plasma (final concentration 1 μM); 4) venom condition (V)—venom addition (v/v, 125 ng/ml final concentration as previously reported) in PBS to plasma; and, 5) venom exposed to RuCl3 dissolved in PBS condition (V+R/P)—venom and 100 μM RuCl3 1% addition (v/v) in PBS to plasma. All the solutions used for these five conditions to be placed in plasma remained at room temperature for five minutes prior to addition."}, "[5]": {"conditions": "venom exposed 5 min to 100 μM RuCl3 in PBS vs RuCl3 naïve venom, venom 125 ng/ml"}}}
{"compound": "[C-]#[O+].[C-]#[O+].[C-]#[O+].[C-]#[O+].[C-]#[O+].[C-]#[O+].[Cl][Ru][Cl].[Cl][Ru][Cl]", "note": "[CORM-2, tricarbonyldichlororuthenium(II) dimer]", "values": [{"measurement": "protection against acute kidney injury", "setting": "acute kidney injury", "value": "protected against injury"}, {"measurement": "tolerability", "setting": "acute kidney injury", "value": "well tolerated"}, {"measurement": "plasmatic velocity of clot formation and strength", "setting": "[1]; 10 mg/kg CORM-2 injected into venom site 5 min after venom 11.2 mg/kg", "value": "appeared to preserve the velocity of clot formation and strength until the third hour after venom injection"}, {"measurement": "plasmatic velocity of clot formation", "setting": "[1]; 20 mg/kg CORM-2 injected into venom site after venom 11.2 mg/kg", "value": "minimally affected for the three hours after venom injection"}, {"measurement": "procoagulant activity of venom", "setting": "Echis leucogaster venom", "value": "uninhibited"}, {"measurement": "CORM-2/ iRM Inhibition", "setting": "Atheris nitschei venom", "value": "Yes"}, {"measurement": "anticoagulant effects of venom in vitro", "setting": "[2]", "value": "very effectively abrogated"}, {"measurement": "tolerability", "setting": "[3]", "value": "well tolerated"}]}
{"compound": "[Cl][Ru]([Cl])[Cl]", "note": "[RuCl3, ruthenium(III) chloride]", "values": [{"measurement": "neurotoxic, anticoagulant PLA2 activity", "setting": "[4]; RuCl3 dissolved in PBS, 100 μM", "value": "inhibited"}, {"measurement": "decrease in TMRTG values", "setting": "[4]; [5]", "value": 47, "unit": "%"}, {"measurement": "increase in MRTG values", "setting": "[4]; [5]", "value": 375, "unit": "%"}, {"measurement": "increase in TTG values", "setting": "[4]; [5]", "value": 231, "unit": "%"}, {"measurement": "TMRTG, MRTG or TTG values", "setting": "[4]; venom exposed to 100 μM RuCl3 in PBS vs control condition (no venom)", "value": "no significant differences"}]}
